Laboratory results as given in patent publication US12577217B2, “15-PGDH inhibitor” (KYORIN Pharmaceutical Co., Ltd., priority 2019, dated 2026).

target: T1, recombinant human 15-PGDH (Homo sapiens, UniProt P15428); assay: 15-PGDH enzyme inhibition test; assay type: biochemical; conditions: 4 nM recombinant human 15-PGDH, 30 μM PGE2, 1 mM NAD+, 60 minutes after starting the reaction; read-out: IC50 Value
T1 construct: purchased R&D Systems
T1 sequence (P15428 1-266): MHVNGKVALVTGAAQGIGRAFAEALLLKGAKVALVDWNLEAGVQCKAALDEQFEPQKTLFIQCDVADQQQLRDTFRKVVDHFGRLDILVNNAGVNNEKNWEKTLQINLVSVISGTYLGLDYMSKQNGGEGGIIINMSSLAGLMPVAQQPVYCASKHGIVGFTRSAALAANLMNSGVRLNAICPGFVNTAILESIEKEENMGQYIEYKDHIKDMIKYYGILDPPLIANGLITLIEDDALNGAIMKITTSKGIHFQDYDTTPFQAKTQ
Summary of the method: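 Fluorescence (excitation 340 nm, emission 440 nm) measured 60 min after adding 1 mM NAD+ and 30 μM PGE2 to 4 nM recombinant human 15-PGDH, which had stood 12 min at room temperature with compound in pH 8.0 Tris-HCl buffer. Concentration-response curves yield IC50, binned into potency categories.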

Row | Structure (SMILES) | IC50 [nM]
1 | CC1c2cc(N3CCOc4cc(C(=O)N5CCCCC5)cnc43)ccc2C(=O)N1C (single isomer, unassigned) [16-1 Isomer B, 2,3-Dimethyl-5-(7-(piperidine-1-carbonyl)-2,3-dihydro-4H-pyrido[3,2-b] [1,4]oxazin-4-yl)isoindolin-1-one] | < 10
2 | O=C(c1ccc2c(c1)OCCN2c1ccccc1)N1CCCCC1 [Example 1-18] | < 10
3 | CN1Cc2cc(N3CCOc4cc(C(=O)N5CCC(F)(F)CC5)ccc43)ccc2C1=O [Example 1-149] | < 10
4 | O=C(c1cnc2c(c1)CCCN2c1cc2c(cn1)C(=O)N(C1COC1)C2)N1CCC(F)(F)CC1 [Example 1-183] | 10 to 100
5 | O=C(c1cnc2c(c1)OCCN2c1ccn2c(=O)[nH]nc2c1)N1CCCCC1 [Example 1-30] | < 10
6 | Cn1nc2cc(N3CCOc4cc(C(=O)N5CCCCC5)ccc43)ccn2c1=O [Example 1-25] | < 10
7 | O=C(c1cnc2c(c1)CCCN2c1cc2c(cn1)C(=O)N(C1COC1)C2)N1CCCCC1 [Example 1-74] | 10 to 100
8 | COCn1nc2cc(N3CCCc4cc(C(=O)N5CCC[C@@H](CF)C5)cnc43)ccn2c1=O [Example 1-121] | < 10
9 | C[C@H]1CCCN(C(=O)c2cnc3c(c2)OCCN3c2ccn3c(=O)[nH]nc3c2)C1 [Example 1-42] | < 10
10 | COCn1nc2cc(N3CCOc4cc(C(=O)N5CCC(F)(F)CC5)cnc43)ccn2c1=O [Example 1-43] | < 10
11 | CCOCCn1nc2cc(N3CCCc4cc(C(=O)N5CCCCC5)cnc43)ccn2c1=O [Example 1-70] | < 10
12 | Cn1nc2cc(N3CCOc4cc(C(=O)N5CCCCC5)cnc43)ccn2c1=O [Example 1-21] | < 10
13 | CN1Cc2nc(N3CCOc4cc(C(=O)N5CCCCC5)cnc43)ccc2C1=O [Example 1-102] | 10 to 100
14 | Cn1nc2cc(N3CCCc4cc(C(=O)N5CCC[C@H](CF)C5)cnc43)ccn2c1=O [Example 1-112] | < 10
15 | COCCNC(=O)c1ccc(N2CCCc3cc(C(=O)N4CCCCC4)cnc32)cc1F [Example 1-60] | < 10
16 | CNC(=O)c1ncc(N2CCCc3cc(C(=O)N4CCC(F)(F)CC4)cnc32)cc1F [Example 1-180] | < 10
17 | COCN1Cc2cc(N3CCCc4cc(C(=O)N5CCCCC5)cnc43)ccc2C1=O [Example 1-172] | < 10
18 | Cn1cnc2cc(N3CCCc4cc(C(=O)N5CCCCC5)cnc43)ccc2c1=O [Example 1-87] | < 10
19 | CN1Cc2cc(N3CCCc4cc(C(=O)N5CCC(F)(F)CC5)cnc43)ccc2C1=O [Example 1-81] | < 10
20 | CS(=O)(=O)NCc1ccc(N2CCOc3cc(C(=O)N4CCCCC4)ccc32)cc1 [Example 1-160] | < 10
21 | Cn1nc2cc(N3CCCc4cc(C(=O)N5CCC[C@@H](CF)C5)cnc43)ccn2c1=O [Example 1-119] | < 10
22 | O=C(c1cnc2c(c1)CCCN2c1ccc2c(c1)CN(C1CC1)C2=O)N1CCC(F)(F)CC1 [Example 1-213] | < 10
23 | Cn1nc2cc(N3CCCOc4cc(C(=O)N5CCCCC5)cnc43)ccn2c1=O [Example 1-99] | < 10
24 | COC(=O)c1ccccc1N1CCc2cc(C(=O)N3CCCCC3)ccc21 [Example 1-138] | > 100
25 | CCOCCN1Cc2cc(N3CCCc4cc(C(=O)N5CCC(F)(F)CC5)cnc43)ccc2C1=O [Example 1-83] | < 10
26 | CC(C)n1nc2cc(N3CCOc4cc(C(=O)N5CCCCC5)cnc43)ccn2c1=O [Example 1-27] | < 10
27 | C[C@@H]1COc2cc(C(=O)N3CCCCC3)ccc2N(c2ccn3c(=O)n(C)nc3c2)C1 [Example 1-96] | < 10
28 | O=C(c1cnc2c(c1)OCCN2c1ccn2ncnc2c1)N1CCCCC1 [Example 1-106] | < 10
29 | Cn1nc2cc(N3CCCc4cc(C(=O)N5CCC(F)(F)CC5)cnc43)ccn2c1=O [Example 1-129] | < 10

More lines, now with the values ahead:

Row | IC50 [nM] | Structure (SMILES)
30 | < 10 | NC(=O)c1ccc(N2CCOc3cc(C(=O)N4CCCCC4)cnc32)cc1 [Example 6-17]
31 | < 10 | Cn1ccc2cc(N3CCOc4cc(C(=O)N5CCCCC5)cnc43)ccc2c1=O [Example 1-217]
32 | < 10 | C#CC1CCN(C(=O)c2cnc3c(c2)OCCN3c2ccn3c(=O)n(C)nc3c2)CC1 [Example 8-111]
33 | > 100 | Cn1nc2cc(N3CCOc4cc(C(=O)N5CCC[C@@H]5C(=O)OC(C)(C)C)cnc43)ccn2c1=O [Example 8-228]
34 | < 10 | Cn1nc2cc(N3CCOc4cc(C(=O)N5CC=CCC5)cnc43)ccn2c1=O [Example 8-229]
35 | < 10 | CCN1Cc2cc(N3CCCc4cc(C(=O)N5CCCC[C@@H]5C)cnc43)ccc2C1=O [Example 8-79]
36 | < 10 | C[C@@H]1CCCN(C(=O)c2cnc3c(c2)OCCN3c2ccn3c(=O)n(C)nc3c2)C1 [Example 8-31]
37 | < 10 | Cn1nc2cc(N3CCOc4cc(C(=O)N5CCC(F)(F)C5)cnc43)ccn2c1=O [Example 8-25]
38 | > 100 | CC(C)(C(N)=O)c1ccc(N2CCOc3cc(C(=O)N4CCCCC4)cnc32)cc1 [Example 6-20]
39 | < 10 | CCn1nc2cc(N3CCCc4cc(C(=O)N5CCCC(F)(F)C5)cnc43)ccn2c1=O [Example 8-164]
40 | 10 to 100 | Cn1nc2cc(N3CCOc4cc(C(=O)N5CCOCC5)cnc43)ccn2c1=O [Example 8-225]
41 | < 10 | Cn1nc2cc(N3CCOc4cc(C(=O)N5CCCC(F)(F)C5)cnc43)ccn2c1=O [Example 8-24]
42 | > 100 | CC(C)(NS(C)(=O)=O)c1ccc(N2CCOc3cc(C(=O)N4CCCCC4)cnc32)cc1 [Example 31-2]
43 | < 10 | COCCN1CCN(c2ccn3c(=O)n(C)nc3c2)c2ncc(C(=O)N3CCCCC3)cc21 [Example 29-2]
44 | > 100 | O=C(O)c1ccccc1N1CCc2cc(C(=O)N3CCCCC3)ccc21 [Example 2-28]
45 | 10 to 100 | O=C(c1cnc2c(c1)OCCN2c1cccc(Cl)c1)N1CCCCC1 [Example 1-253]
46 | 10 to 100 | CN(CCCO)C(=O)c1cnc2c(c1)OCCN2c1ccn2c(=O)n(C)nc2c1 [Example 8-175]
47 | < 10 | C[C@@H]1CCCN(C(=O)c2cnc3c(c2)CCCN3c2ccn3c(=O)n(C)nc3c2)C1 [Example 8-134]
48 | 10 to 100 | Cn1nc2cc(N3CC(F)(F)COc4cc(C(=O)N5CCCCC5)cnc43)ccn2c1=O [Example 22-1, 7-(3,3-Difluoro-8-(piperidine-1-carbonyl)-3,4-dihydropyrido[3,2-b][1,4]oxazepin-5(2H)-yl)-2-methyl-[1,2,4]triazolo[4,3-a]pyridin-3 (2H)-one]
49 | > 100 | CCN1Cc2cc(N3CCCc4cc(C(=O)N5CCN(C(C)=O)CC5)cnc43)ccc2C1=O [Example 8-74]
50 | < 10 | COCn1nc2cc(N3CCCc4cc(C(=O)N5CCC(F)(F)C(C)C5)cnc43)ccn2c1=O (stereo not drawn) [Example 8-117]
51 | < 10 | CN1Cc2cc(N3CCOc4cc(C(=O)N5CCCCCC5)cnc43)ccc2C1=O [Example 8-186]

Row | IC50 [nM] | Structure (SMILES)
52 | 10 to 100 | O=C(c1ccc2c(c1)OCCN2C1CCCCC1)N1CCCCC1 [Example 8-14]
53 | < 10 | CCn1nc2cc(N3CCCc4cc(C(=O)N5CCC[C@@H](C(F)F)C5)cnc43)ccn2c1=O [Example 8-167]
54 | < 10 | COC(=O)C1CCCN(C(=O)c2cnc3c(c2)OCCN3c2ccn3c(=O)n(C)nc3c2)C1 (stereo not drawn) [Example 8-36]
55 | < 10 | CNC(=O)Cn1nc2cc(N3CCOc4cc(C(=O)N5CCCCC5)cnc43)ccn2c1=O [Example 6-7]
56 | > 100 | CNC(=O)c1ccc(N2CCOc3cc(C(=O)N4CCCCC4)cnc32)cc1C [Example 6-12]
57 | 10 to 100 | COc1cc(N2CCOc3cc(C(=O)N4CCCCC4)cnc32)cc2nn(C)c(=O)n12 [Example 1-230]
58 | > 100 | CC(C)(C(=O)O)c1ccc(N2CCOc3cc(C(=O)N4CCCCC4)cnc32)cc1 [Example 2-37]
59 | < 10 | O=C(c1cnc2c(c1)CCCN2c1ccc(-c2nn[nH]n2)cc1)N1CCCCC1 [Example 14-7]
60 | < 10 | CNC(=O)c1ccc(N2CCOc3cc(C(=O)N4CCCCC4)cnc32)cc1 [Example 6-18]
61 | < 10 | O=C1NCc2cc(N3CCCc4cc(C(=O)N5CCCCC5)cnc43)ccc21 [Example 14-4]
62 | < 10 | C[C@H]1CCCN1C(=O)c1cnc2c(c1)OCCN2c1ccn2c(=O)n(C)nc2c1 [Example 8-29]
63 | < 10 | O=C(c1cnc2c(c1)OCCN2c1ccn2c(=O)n(CC(F)(F)F)nc2c1)N1CCC(F)(F)CC1 [Example 27-8]
64 | > 100 | CNC(=O)c1cn(C)c2cc(N3CCOc4cc(C(=O)N5CCCCC5)cnc43)ccc12 [Example 6-10]
65 | < 10 | Cn1nc2cc(N3CCCc4cc(C(=O)N5CCCCCCC5)cnc43)ccn2c1=O [Example 8-125]
66 | < 10 | CN1CCN(C(=O)c2cnc3c(c2)OCCN3c2ccc3c(c2)CN(C)C3=O)CC1 [Example 8-189]
67 | < 10 | CN1Cc2cc(N3CCOc4cc(C(=O)N5CCC[C@@H](CF)C5)cnc43)ccc2C1=O [Example 8-203]
68 | < 10 | O=C(O)c1ccc(N2CCOc3cc(C(=O)N4CCCCC4)ccc32)cc1 [Example 2-7]
69 | < 10 | CCn1nc2cc(N3CCCc4cc(C(=O)N5CCC[C@H](F)C5)cnc43)ccn2c1=O [Example 8-163]
70 | 10 to 100 | Cn1nc2cc(N3CCCc4cc(C(=O)N5CCOCC5)cnc43)ccn2c1=O [Example 8-126]
71 | < 10 | O=C(O)c1ccc(N2CCOc3c2ccc(C(=O)N2CCCCC2)c3Cl)cc1 [Example 2-4]
72 | < 10 | O=C(c1cnc2c(c1)OCCN2c1ccn2c(=O)n(Cc3ccc(F)cc3)nc2c1)N1CCC(F)(F)CC1 [Example 27-4]
